Tested on: Naïve CD8+ T cells
Description: Naïve CD8+ T cells were isolated from mouse spleen. Cells were activated at a cell density of 10^6 cells/mL using plate-bound αCD3/αCD28+100 U/mL TL2 in RPMI containing 10% FBS.

Structure (SMILES): O=CO [formate]
- cell size at day 1 post activation (1 mM formate in media, from 9.5 μm without formate): 10.2 μm
- extent of cells showing cell surface activation markers (CD25+, CD69+) (1 mM formate, from 78% without formate): 88%
- reduction of NADH concentration (formate, p<0.005): 1.8 fold
- dead cells (growing CD8+ T cells, from 10% without formate): 5%

Source: patent US20240285683A1, “Compositions And Methods For Enhancing Immunotherapy” (The Trustees of Princeton University, priority 2017, published 2024)
